The values that follow come from US20240306641A1, “P-BOOSTER” (EUROCHEM ANTWERPEN, priority 2021, published 2024).

The subject of the experiment is Arabidopsis thaliana Columbia-0. The experiment in a line: Arabidopsis 96-well plate anthocyanin quantification. It counts as in vivo. Here is the method:
Col-0 ecotype Arabidopsis seeds were sown in 96-well plates containing 150 μl of low phosphate modMS liquid medium containing 1% of sucrose. Compounds was added in 50 μM concentration (1% DMSO). Eight plants per repeat were collected 7 days after germination and put into a fresh Eppendorf. Extraction and quantification of anthocyanin levels was carried out according to The Plant cell 2013, 25:1641-1656. Anthocyanin levels were quantified by measuring absorption at 530 and 657 nm using a spectrophotometer and normalized to fresh weight input, and expressed relative to the low phosphate control. For pot experiments, the same procedure was followed with one 4-week old plant per sample.

For `CCN(CCCNc1ncnc2nc(N)ccc12)c1ccccc1` [Example 1], the “Anthocyanin level in the leaves (in words)” value (96-well plate assay) is on record as “reduced”. Besides, the Relative anthocyanin level (Arabidopsis 96-well plate, low phosphate, 50 μM compound, 7 days after germination, relative to control (=1)) came to 0.6.
